Measurements taken from US12152038B2, “Vasopressin receptor antagonists and products and methods related thereto” (Neumora Therapeutics, Inc., priority 2017, dated 2024).
pIC50: −log10 of the molar value.

What was measured:
[1] = biological target: T1, human Arginine Vasopressin Receptor 1a (AVPR1a) (Homo sapiens, UniProt P37288); assay: Vasopressin V1a receptor antagonist assay (FLIPR calcium, CHO-AVPR1a cells); format: cell-based
T1 construct: expressed in transfected cells; host or cells: CHO (CHO-AVPR1a, kept under G418 selection)
In short: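 CHO cells expressing human AVPR1a were loaded with Calcium-6 dye and preincubated with compound for 15 min at 37° C. Cells were then challenged with AVP at its daily-determined EC80, and FLIPR fluorescence was read. Compounds were tested in duplicate as 10-point 1:3 dilutions from a top final concentration of 3 μM.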

[2] = biological target: T2, human Arginine Vasopressin Receptor V2 (AVPR2) (Homo sapiens, UniProt P30518); assay: Vasopressin V2 receptor antagonist assay (TR-FRET cAMP, 1321N1 cells); format: cell-based
T2 construct: host or cells: 1321N1 (cAMPZen V2 assay ready frozen cells)
Experimental: The purpose of the assay was to determine the inhibitory effect of synthesized compounds on the Vasopressin receptor 2. The assay was performed in commercially available 1321N1 cells expressing the human Arginine Vasopressin Receptor V2 (AVPR2) (Perkin Elmer #ES-363-CF). Arginine Vasopressin (AVP) evokes an increase in intracellular cAMP in these cells which is measured in a TR-FRET assay using a Europium cAMP tracer and ULight labelled antibody reagents contained in a LANCE Ultra cAMP kit (Perkin Elmer #TRF0263). Increases in cAMP in the assay result in a reduction in TR-FRET as the cAMP produced by the stimulated cells competes with the Eu-cAMP tracer for binding sites on the ULight labelled antibody. Test compounds were assessed for their ability to affect the magnitude of the response to AVP, with antagonists showing a concentration-dependent decrease in the AVP-mediated reduction in TR-FRET signal.
cAMPZen V2 assay ready cells were thawed at 37° C. and resuspended directly from frozen in 9 ml growth medium consisting of DMEM supplemented with 10% v/v fetal bovine serum, 1× non-essential amino acids, and 1 mM sodium pyruvate. Cells were spun at 1000 rpm for 3 minutes and the supernatant was carefully removed and discarded. The pellet was resuspended in 5 ml stimulation buffer and the cell density determined using the Vi-Cell automated cell counter. The cell suspension was diluted to a 0.2×10^6/ml suspension ready for plating. To all wells of a white 384-well Optiplate (Perkin Elmer #6007299) 5 μL of cells in stimulation buffer were dispensed (1,000 cells per well). Stimulation buffer consisted of HBSS (+Ca/+Mg) supplemented with 5 mM HEPES, 0.1% BSA stabiliser and 0.5 mM IBMX.
At the start of each assay day the potency of AVP was assessed and an EC80 concentration determined for subsequent compound profiling. Assays were performed by first an addition of 2.5 μl of control or test compound at 4× final concentration in stimulation buffer followed by 2.5 μl of AVP at 4× final concentration in stimulation buffer. After a 1 hour reaction, detection reagents were added by first an addition of 5 μl EU-cAMP tracer, followed by 5 μl ULight-anti-cAMP both diluted as per the manufacturer's instructions. After a one hour incubation, plates were ready to be read (signals then remained stable for up to 24 hours). Changes in time resolved fluorescence were monitored with excitation via a laser (337 nm) measuring both 615 nm and 665 nm emission wavelengths. […] For compound profiling, test compounds were dispensed by the Labcyte Echo (10-point curve, 1:3 dilutions) in a target 0.1 μl volume then diluted 750-fold in stimulation buffer containing 3% DMSO prior to addition to the cells. At the end of the incubation period, 2.5 μl of AVP in stimulation buffer was added at the previously determined EC80 concentration.
In-plate controls for the assay included a Tolvaptan concentration-response curve as the reference V2 antagonist and an AVP concentration-response curve to confirm the reproducibility of the EC80 used for the compound challenge.

T1 sequence (P37288 whole entry): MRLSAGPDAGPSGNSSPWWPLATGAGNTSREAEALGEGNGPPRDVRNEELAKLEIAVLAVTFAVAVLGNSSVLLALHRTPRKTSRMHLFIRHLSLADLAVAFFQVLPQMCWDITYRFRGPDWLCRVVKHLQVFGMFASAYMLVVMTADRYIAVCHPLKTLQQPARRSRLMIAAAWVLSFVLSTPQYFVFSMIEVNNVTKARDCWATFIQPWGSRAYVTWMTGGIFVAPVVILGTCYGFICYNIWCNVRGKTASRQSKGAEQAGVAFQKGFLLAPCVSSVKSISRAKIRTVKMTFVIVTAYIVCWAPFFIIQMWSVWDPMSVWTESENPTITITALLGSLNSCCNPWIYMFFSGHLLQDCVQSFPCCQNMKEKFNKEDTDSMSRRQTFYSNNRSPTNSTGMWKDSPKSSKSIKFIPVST
T2 sequence (P30518 whole entry): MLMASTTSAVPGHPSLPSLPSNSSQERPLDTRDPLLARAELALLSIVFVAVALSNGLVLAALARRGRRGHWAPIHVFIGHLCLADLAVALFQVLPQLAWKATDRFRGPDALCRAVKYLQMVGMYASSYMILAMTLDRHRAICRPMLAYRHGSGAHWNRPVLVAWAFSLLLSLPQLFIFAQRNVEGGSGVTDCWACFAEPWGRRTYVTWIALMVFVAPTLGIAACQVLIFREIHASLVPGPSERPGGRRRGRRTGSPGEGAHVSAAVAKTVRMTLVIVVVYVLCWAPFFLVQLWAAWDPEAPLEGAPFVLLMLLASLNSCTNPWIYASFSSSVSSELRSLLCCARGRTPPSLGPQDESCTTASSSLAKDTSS

pIC50 [1] | pIC50 [2] | SMILES
> 7.00 | ≤ 6.00 | O=C(N1CC2(C1)CN(c1cc(F)cc(F)n1)C2)N1CCOc2cc(Cl)ccc21 [1-51]
> 7.00 |  | O=C(N1CC2(C1)CN(c1cccnc1)C2)N1CCOc2cc(Cl)ccc21 [1-72]
> 7.00 | 6.30 to 7.00 | CC1COc2cc(Cl)ccc2N1C(=O)N1CC2(C1)CN(c1ccccn1)C2 (stereo not shown) [1-60]
> 7.00 | > 7.00 | Cc1cncc(N2CC3(CN(C(=O)N4c5ccc(Cl)cc5OCC4C)C3)C2)n1 (stereo not shown) [21-3]
> 7.00 | ≤ 6.00 | O=C(N1CC2(C1)CN(c1ccc(F)c(F)n1)C2)N1CCOc2cc(Cl)ccc21 [1-49]
> 7.00 | 6.00 to 6.30 | CC1COc2cc(F)ccc2N1C(=O)N1CC2(C1)CN(c1ccccn1)C2 (single isomer, unassigned) [1-66-B]
> 7.00 | > 7.00 | CC1COc2cc(Cl)ccc2N1C(=O)N1CC2(C1)CN(c1ccccn1)C2 (single isomer, unassigned) [1-60-B]
> 7.00 | > 7.00 | CC1COc2cc(Cl)ccc2N1C(=O)N1CC2(C1)CN(c1nn(C)c3ncccc13)C2 (single isomer, unassigned) [20-15-B]
> 7.00 | ≤ 6.00 | COc1nccnc1N1CC2(CN(C(=O)N3CCOc4cc(Cl)ccc43)C2)C1 [1-43]
> 7.00 | 6.00 to 6.30 | Cc1nc(N2CC3(CN(C(=O)N4CCOc5cc(Cl)ccc54)C3)C2)ccc1F [1-30]
> 7.00 | 6.30 to 7.00 | COc1ccc2c(c1)OCC(C)N2C(=O)N1CC2(C1)CN(c1ccc(F)cn1)C2 (single isomer, unassigned) [1-59-B]
> 7.00 | 6.30 to 7.00 | Cc1cnnc(N2CC3(CN(C(=O)N4c5ccc(Cl)cc5OCC4C)C3)C2)c1 (stereo not shown) [21-4]
> 7.00 | ≤ 6.00 | O=C(N1CC2(C1)CN(c1cccnn1)C2)N1CCOc2cc(Cl)ccc21 [1-71]
> 7.00 | 6.30 to 7.00 | CC1COc2cc(Cl)ccc2N1C(=O)N1CC2(C1)CN(c1ncncc1F)C2 (stereo not shown) [21-5]
> 7.00 | > 7.00 | CC1COc2cc(Cl)ccc2N1C(=O)N1CC2(C1)CN(c1cnccn1)C2 (single isomer, unassigned) [1-58-B]
> 7.00 | ≤ 6.00 | Cc1cncc(N2CC3(CN(C(=O)N4CCOc5cc(Cl)ccc54)C3)C2)n1 [1-22]
> 7.00 | ≤ 6.00 | O=C(N1CC2(C1)CN(c1ccc(F)cn1)C2)N1CCOc2cc(F)ccc21 [1-64]
 | 6.30 to 7.00 | CC1COc2cc(Cl)ccc2N1C(=O)N1CC2(C1)CN(c1ncc(F)cn1)C2 (single isomer, unassigned) [18-2-B]
> 7.00 | ≤ 6.00 | Cc1cnc(N2CC3(CN(C(=O)N4CCOc5cc(Cl)ccc54)C3)C2)cn1 [1-20]
> 7.00 | ≤ 6.00 | N#Cc1cccc(N2CC3(CN(C(=O)N4CCOc5cc(Cl)ccc54)C3)C2)n1 [1-39]
> 7.00 | 6.30 to 7.00 | CCc1cnc(N2CC3(CN(C(=O)N4c5ccc(Cl)cc5OCC4C)C3)C2)nc1 (stereo not shown) [21-9]
> 7.00 | ≤ 6.00 | CC1COc2cc(Cl)ccc2N1C(=O)N1CC2(C1)CN(c1noc3ccccc13)C2 (stereo not shown) [21-1, (6-(benzo[d]isoxazol-3-yl)-2,6-diazaspiro[3.3]heptan-2-yl)(7-chloro-3-methyl-2,3-dihydro-4H-benzo[b][1,4]oxazin-4-yl)methanone]

pIC50 [1] | pIC50 [2] | SMILES
> 7.00 | 6.30 to 7.00 | Cc1nccc(N2CC3(CN(C(=O)N4c5ccc(Cl)cc5OCC4C)C3)C2)n1 (stereo not shown) [21-8]
> 7.00 | > 7.00 | CCC1COc2cc(Cl)ccc2N1C(=O)N1CC2(C1)CN(c1ccc(F)cn1)C2 (single isomer, unassigned) [1-55-B]
> 7.00 | 6.00 to 6.30 | Cc1cc(N2CC3(CN(C(=O)N4c5ccc(Cl)cc5OCC4C)C3)C2)ncn1 (stereo not shown) [21-11]
> 7.00 | ≤ 6.00 | O=C(N1CC2(C1)CN(c1cccc(F)n1)C2)N1CCOc2cc(Cl)ccc21 [1-69]
> 7.00 | 6.00 to 6.30 | CC1COc2cc(Cl)ccc2N1C(=O)N1CC2(C1)CN(c1cc(=O)n(C)cn1)C2 (single isomer, unassigned) [20-14-B]
> 7.00 | > 7.00 | CC1COc2cc(Cl)ccc2N1C(=O)N1CC2(C1)CN(c1ccc(F)cn1)C2 (single isomer, unassigned) [1-73-B]
> 7.00 | ≤ 6.00 | CC1COc2cc(Cl)ccc2N1C(=O)N1CC2(C1)CN(c1ccc(F)cn1)C2 (single isomer, unassigned) [1-73-A]
> 7.00 | ≤ 6.00 | O=C(N1CC2(C1)CN(c1cnc(F)cn1)C2)N1CCOc2cc(Cl)ccc21 [1-18]
> 7.00 | ≤ 6.00 | O=C(N1CC2(C1)CN(c1cc(F)ccn1)C2)N1CCOc2cc(Cl)ccc21 [1-70]
> 7.00 | ≤ 6.00 | CC1COc2cc(Cl)ccc2N1C(=O)N1CC2(C1)CN(c1ccncn1)C2 (stereo not shown) [21-6]
 | ≤ 6.00 | O=C(N1CC2(C1)CN(c1ccc(F)cn1)C2)N1CCC(O)c2cc(Cl)ccc21 (single isomer, unassigned) [13-1-B]
> 7.00 | 6.30 to 7.00 | CC1COc2cc(F)ccc2N1C(=O)N1CC2(C1)CN(c1ncccc1F)C2 (single isomer, unassigned) [1-67-A]
> 7.00 | ≤ 6.00 | N#Cc1ccnc(N2CC3(CN(C(=O)N4CCOc5cc(Cl)ccc54)C3)C2)c1 [1-53]
> 7.00 | ≤ 6.00 | CC1COc2cc(F)ccc2N1C(=O)N1CC2(C1)CN(c1cnccn1)C2 (single isomer, unassigned) [1-65-B]
> 7.00 | ≤ 6.00 | Cc1cc(F)nc(N2CC3(CN(C(=O)N4CCOc5cc(Cl)ccc54)C3)C2)c1 [1-45]
> 7.00 | 6.30 to 7.00 | Cc1cccc(N2CC3(CN(C(=O)N4CCOc5cc(Cl)ccc54)C3)C2)n1 [1-3]
> 7.00 | ≤ 6.00 | CC1COc2cc(Cl)ccc2N1C(=O)N1CC2(C1)CN(c1ncccc1C#N)C2 (stereo not shown) [21-2]
> 7.00 | ≤ 6.00 | COc1ccc(N2CC3(CN(C(=O)N4CCOc5cc(Cl)ccc54)C3)C2)nc1 [1-68]
> 7.00 | > 7.00 | CC1COc2cc(Cl)ccc2N1C(=O)N1CC2(C1)CN(c1ncccc1F)C2 (single isomer, unassigned) [1-57-A]
> 7.00 | ≤ 6.00 | CC1COc2cc(F)ccc2N1C(=O)N1CC2(C1)CN(c1ncccc1F)C2 (stereo not shown) [1-67]
> 7.00 | > 7.00 | Cc1cnc(N2CC3(CN(C(=O)N4c5ccc(Cl)cc5OCC4C)C3)C2)nc1 (single isomer, unassigned) [20-13-B]
> 7.00 | 6.30 to 7.00 | CC1COc2cc(Cl)ccc2N1C(=O)N1CC2(C1)CN(c1nccc(C(F)(F)F)n1)C2 (stereo not shown) [21-10]
